Source: patent US8658777B2, “Activated protease indicator” (The University of Tokyo, priority 2007, dated 2014)
*1 amine or outer side, *2 acyl side, *3 side chain or, on linkers, in order; H or OH if unused. Where a SMILES comes first, the peptide text is derived from it. Bridges are numbered along the chain shown (N, C = ends). Roman numbers before positions name the chains, in order. [ ]: non-standard residue; d: D form. The star is where a group is joined. Actinocin(9to1) = Cc1c2oc3c(C)ccc(C(=O)[*:1])c3nc-2c(C(=O)[*:2])c(N)c1=O; NMeV = CN[C@H](C(=O)O)C(C)C; Cbz = O=C(OCc1ccccc1)*; Sar = CNCC(=O)O; CH2F = FC*

Legend:
caspase-3 [1] = assay: In vitro assay of firefly luciferase in HeLa cells transfected with pcFluc-DEVD; type: cell-based
Description: (§1) [FIG. 7] Quantitative analysis of the Flue activity with STS. After transfection of HeLa cells with pcFluc-DEVD for 48 hours, the cells were treated with various concentrations of STS for two hours. A relative luminescence unit (RLU) was defined as follows: the luminescence intensity from the right side (LumR) was divided by that from the left side (LumL), as RLU (%)=LumR/LumL.
as §1, with “8]” for “7]”, “Z-VAD-FMK. The” for “STS. After transfection of”, “cells were transfected” for “cells”, “hours,” for “hours, the cells were”, “treated with different concentrations of Z-VAD-FMK or vehicle (0.1% DMSO), and stimulated” for “treated”
(§2) pcFluc-DEVD and pRL-TK were transfected in the COS-7 cells and the HeLa cells for 48 hours. These cells were treated with STS or a caspase inhibitor Z-VAD-FMK (Sigma) to assay the luciferase activity according to the report (Ozawa, T. et al. (2001) Anal. Chem. 73, 2516-21; Kanno, A. et al. (2006) Anal. Chem. 78, 556-60). The assay time period of Fluc and Renilla reniformis luciferase (Rluc) was 20 seconds. The luminescence from Fluc (LF) was normalized to the luminescence from Rluc (LR), and the resulting value was defined as relative luminescence unit (RLU; RLU=LF/LR). All the assays were done in various wells in a culture plate triplicately, using a luminometer of MiniLuraat LB9506 (Berthold GmbH & Co. KG, Wildbad, Germany). The results are shown as the mean ratio of the RLU value to the RLU value of cells treated with a solvent (0.1% DMSO), together with the standard deviations.
To show the feasibility of cyclic Fluc for characterizing apoptotic regents, the sensitivity of cyclic Fluc was examined, using HeLa cells. The cells were transfected with pcFluc-DEVD, for transient expression of chimera proteins, which were stimulated with different concentrations of STS for two hours. […]

caspase-3 [2] = assay: In vitro assay of firefly luciferase in COS-7 cells transfected with pcFluc-DEVD; type: cell-based
Description: as §1, with “5]” for “7]”, “Fluc” for “Flue”, “STS and Z-VAD-FMK.” for “STS.”, “COS-7” for “HeLa”, “treated with 100 μM Z-VAD-FMK or vehicle (0.1% DMSO) for an hour and then stimulated” for “treated”
as §2
In the Example, continuously, it was examined whether the activity of the cyclic Fluc was restored after stimulation with STS. COS-7 cells transfected with pcFluc-DEVD were stimulated with STS or a caspase inhibitor Z-VAD-FMK, or with both STS and Z-VAD-FMK. The cells were harvested and their lysates were mixed with a Fluc substrate, D-luciferin. […] The luminescence signals in the presence of Z-VAD-FMK were smaller than the signals that originated from the cells in the absence of STS and Z-VAD-FMK.

caspase-3 [3] = assay: Real-time in vitro analysis of caspase-3 activity in HeLa cells expressing cyclic Fluc; type: cell-based
Description: (§3) [FIG. 9] Real-time in vitro analysis of caspase-3 activity. Forty eight hours after HeLa cells transfected with pcFluc-DEVD were treated with different concentrations of STS and then the bioluminescence intensities were measured every 5 minutes. The indicated time represents the time after the addition of each agent.
as §3, with “10] Results of the measurement with actinomycin D (ActD) in the same manner as in FIG. 9.” for “9]”, “capsase-3” for “caspase-3”, “actinomycin D (ActD)” for “STS”
pcFluc-DEVD was transfected in the HeLa cells in a 10-cm Petri dish for 24 hours. The cells were scraped off and divided in five 3-cm Petri dishes, for culturing for 24 hours. The culture medium was replaced with the Hank's balanced salt solution (Gibco) containing 500 μM D-luciferin and 5% FBS. After the five 3-cm Petri dishes were mounted on a photon counter (KRONOS, ATTO, Tokyo, Japan), the cells were stimulated with STS or actinomycin D (Act D, Sigma). The luminescence intensity in each of the Petri dishes was assayed for a cumulative time period of 45 seconds at an interval of 5 minutes.
It is known that the time required for caspase-3 activation in response to extracellular stimuli varies with the type of chemical compounds and its concentration. In order to decide upon a screening time, it is crucial to know when the activity of caspase-3 gives a maximum response after stimulation with such apoptotic chemical regents. […] First, the cyclic Fluc indicator was transiently expressed in HeLa cells; the luminescence intensity upon stimulation with STS at various concentrations was monitored every five minutes in a time course (FIG. 9). […] The rate of increase in the luminescence intensity depended on the STS concentration. […] The decrease in the luminescence signal intensity indicates attenuation of active luciferase by proteolysis in the HeLa cells.

caspase-3 [4] = assay: Western blot analysis of cyclic and linear Fluc in COS-7 cells transfected with pcFluc-DEVD; type: cell-based; settings: indicated concentrations of STS for two hours, Western blot (FIG. 4)
Description: Western blot analysis of Fluc in the circular form and in the linear form. COS-7 cells transfected with pcFluc-DEVD for 48 hours were treated with the indicated concentrations of STS for two hours and harvested. The sample was electrophoresed, transferred on a nitrocellulose membrane and stained with a specific antibody.
pcFluc-DEVD was transfected in the COS-7 cells for 48 hours. The cells were stimulated with staurosporine (STS; Sigma, St. Louise, Mo.) and then disrupted in a lysis buffer (1% SDS, 10% glycerol, 10% 2-mercaptoethanol, 0.001% Bromophenol Blue, 50 mM Tris/HCl, pH 6.8). The sample was electrophoresed with 10% SDS polyacrylamide gel, which was then transferred on a nitrocellulose membrane (Hybond-ECL, GE Healthcare, Buckinghamshire, England). Fluc was detected with a polyclonal anti-luciferase antibody (Promega); the immunoreactivity was evaluated, using horseradish peroxidase (HRP) conjugated to an anti-goat IgG antibody (Promega). The HRP activity was visualized, using an ECL advance Western blotting detection kit (GE Healthcare) with LAS-1000 plus image analyzer (Fuji Film Co., Tokyo, Japan).
To assess whether the fusion protein expressed by pcFluc-DEVD produces cyclic Fluc by protein splicing, herein, pcFluc-DEVD was transfected in COS-7 cells and chimera proteins were transiently expressed for 48 hours. The spliced products were examined by Western blot (FIG. 3). […]

caspase-3 [5] = assay: Fluc activity in caspase-3-deficient MCF-7 cells transfected with pcFluc-DEVD with or without pCaspase-3; type: cell-based
Description: Analysis of the Flue activity in the caspase-3-deficient MCF-7 cells. MCF-7 cells were transfected with only pcFluc-DEVD (left) or with both pcFluc-DEVD and pCaspase-3 (right). The cells were incubated for 48 hours and the luminescence intensities were evaluated at the indicated times after stimulation with 100 nM STS. A relative luminescence unit (RLU) was defined as follows: the luminescence intensity from the right side (LumR) was divided by that from the left side (LumL), as RLU (%)=LumR/LumL.

caspase-3 [6] = assay: In vivo imaging of caspase-3 activity in living mice implanted with HeLa cells expressing cyclic Fluc; set-up: species or system BALB/c-nude mouse
Text: [FIG. 11] In vivo luminescence assay of mice carrying transiently transfected HeLa cells. The mice were subcutaneously implanted with HeLa cells expressing cyclic Fluc (right side) and full-length Fluc (left side). Images of the mice were taken at the indicated times after intraperitoneal injection of STS. A representative of three mice is shown.
[FIG. 12] Time-dependent changes in the photon count from the implanted site in FIG. 11. The relative luminescence unit (RLU) is shown on the longitudinal axis, where RLU=LumR/LumL provided that luminescence intensity from the right side (LumR) is divided with the luminescence intensity from the left side (LumL), as shown in (A). A relative luminescence unit (RLU) was defined as follows: the luminescence intensity from the right side (LumR) was divided by that from the left side (LumL), as RLU (%)=LumR/LumL.
pX8luc or pcFluc-DEVD was transfected in HeLa cells for 48 hours. The cells were harvested and suspended in a phosphate buffered saline (PBS), from which 1.0×10^6 cells were transplanted in two different dorsal positions of a BALB/c-nude mouse (female, five-week-old, body weight of about 17 to 20 g). After the cell transplantation, STS dissolved in DMSO was intraperitoneally injected. Immediately thereafter, a PBS buffer containing D-luciferin (600 mg/kg body weight) was intraperitoneally injected, to assay the luminescence from the mouse, using a CCD camera (IVIS200 system, Xenogen, Alameda, Calif.). Photons emitted from the transplanted cells were counted and cumulatively recorded over one minute. Image analysis was done, using the software LIVING IMAGE (Xenogen). So as to quantitatively determine the assayed luminescence, a region of interest was extracted from the cell-transplanted regions, to evaluate the luminescence intensity (photon·second^−1·cm^−2). […]
To quantitatively evaluate the effect of STS on caspase-3 activity, a relative luminescence unit (RLU) was defined as follows; the luminescence intensity from the right side (LumR) was divided by that from the left side (LumL), as RLU (%)=LumR/LumL. […]

[7] = STS 100 μg/kg of body weight i.p.

## COC(=O)C[C@H](NC(=O)[C@H](C)NC(=O)[C@@H](NC(=O)OCc1ccccc1)C(C)C)C(=O)CF [Z-VAD-FMK] (Cbz-Val-Ala-Asp(OMe)-CH2F)
caspase-3 [1]; HeLa cells stimulated with STS for two hours (FIG. 8)
  concentrations at which inhibitory effect on the cleavage of the cyclic Fluc was observed: higher than 10 μM
caspase-3 [1]; HeLa cells, 100 μM Z-VAD-FMK, STS stimulation
  cleavage of the cyclic Fluc: completely suppressed
caspase-3 [2]; COS-7 cells treated with 100 μM Z-VAD-FMK (FIG. 5)
  luminescence signal relative to signals from vehicle-treated cells: 50%
caspase-3 [2]; COS-7 cells, 100 μM Z-VAD-FMK, in the presence or absence of 1 μM STS
  luminescence: no increase in luminescence
caspase-3 [2]; COS-7 cells, 100 μM Z-VAD-FMK, no STS
  basal caspase-3 activities: completely inhibited

## Cc1c2oc3c(C)ccc(C(=O)N[C@@H]4C(=O)N[C@H](C(C)C)C(=O)N5CCC[C@H]5C(=O)N(C)CC(=O)N(C)[C@@H](C(C)C)C(=O)O[C@@H]4C)c3nc-2c(C(=O)N[C@@H]2C(=O)N[C@H](C(C)C)C(=O)N3CCC[C@H]3C(=O)N(C)CC(=O)N(C)[C@@H](C(C)C)C(=O)O[C@@H]2C)c(N)c1=O [ActD, actinomycin D] (I: T[dV]P[Sar][NMeV] / II: T[dV]P[Sar][NMeV]; ester I:1-I:C, II:1-II:C; linker I:N-II:N via Actinocin(9to1))
caspase-3 [3]; ActD, then gradually decreased (FIG. 10)
  time period over which the luminescence signal intensity increased: 25 to 120 min

## CN[C@@H]1C[C@H]2O[C@@](C)([C@@H]1OC)n1c3ccccc3c3c4c(c5c6ccccc6n2c5c31)C(=O)NC4 [STS, staurosporine]
caspase-3 [1]; HeLa cells, STS for two hours (FIG. 7)
  concentration range inducing an increase in the bioluminescence intensity: 10 to 1000 nM
caspase-3 [2]; COS-7 cells, various concentrations of STS for two hours (FIG. 5)
  luminescence signals: increased with increase in concentrations of the STS
caspase-3 [4]
  Formation of the linear form of Fluc: dependent on the concentration of STS
caspase-3 [3]; STS at various concentrations (FIG. 9)
  time at which luminescence signals reach a maximum after stimulation: 100 min
caspase-3 [3]; STS at various concentrations, measured every five minutes (FIG. 9)
  duration of initial slow increase in the luminescence signals: 25 min
caspase-3 [5]; MCF-7 cells cotransfected with pcFluc-DEVD and pCaspase-3, stimulation with STS
  luminescence from the cells: significantly increased
caspase-3 [5]; MCF-7 cells transfected with pcFluc-DEVD only, 1 μM STS for two hours
  change in the bioluminescence intensity: little change
caspase-3 [6]; [7]
  luminescence signal from the left side (HeLa cells expressing full-length Fluc, control): no significant change
  luminescence signal intensity from the right side (implanted cyclic Fluc cells): significant increase
caspase-3 [6]; two hours after the intraperitoneal STS injection, RLU=LumR/LumL (FIG. 12)
  maximum RLU ratio in comparison to the RLU before STS stimulation: 300 to 400%
